PMC6662923 (Chemical research in toxicology, 2018)

Columns and labels:
[1] = human liver microsomes, 2 h incubation; cited from earlier work
[2] = ref Table S4; cited from earlier work
male Swiss Webster mice = test: Lethality assay in mice; conditions: for Time of most overdose events after drug exposure: bolus iv injection
mice = tested on: mice; parameters: unit not given beside the values; conditions: literature value for LD50 in mice, ref not given; cited from earlier work
Lethality assay in mice = conditions: male, Swiss Webster, mouse, in vivo, iv
murine μ-OR = conditions: cited from earlier work
[3] = post-mortem toxicology reports; cited from earlier work

Row | Compound | Conversion to mitragynine [1] [%] | Solubility in aqueous solution [2] | Time of most overdose events after drug exposure (male Swiss Webster mice) [min] | Observations after oral dosing (male Swiss Webster mice; oral, no deaths observed) | LD50 iv, literature value (mice) | LD50 at 24 h (Lethality assay in mice) [mg/kg] | Mode of binding at the murine μ-OR (murine μ-OR) | Reported urine concentrations in overdose deaths involving Kratom [3] [µg/mL] | LD50 oral (male Swiss Webster mice; oral, doses given in mg/kg)
1 | CC[C@@H]1CN2CC[C@@]3(O)C(=Nc4cccc(OC)c43)[C@@H]2C[C@@H]1/C(=C\OC)C(=O)OC [7-hydroxymitragynine, 7-Hydroxymitragynine] | 45 | low solubility | ≤ 10 | severe respiratory depression and seizures were observed |  |  |  |  | 
2 | CC(=O)Oc1ccc2c3c1O[C@H]1[C@@H](OC(C)=O)C=C[C@H]4[C@@H](C2)N(C)CC[C@@]341 [heroin] |  |  |  |  | 21.8 | 23.7 |  |  | 
3 | mitragynine |  | low solubility | ≤ 10 |  |  |  | competitive antagonist | 0.167 to 1.2 | 547.7
